In patent US20220142977A1, “METHODS OF TREATING CONDITIONS RELATED TO THE S1P1 RECEPTOR” (ARENA PHARMACEUTICALS, INC., priority 2019, published 2022):
Counter-ions that a name gives are not always drawn.

Key:
[1] = tested on: patients with moderate to severe ulcerative colitis; assay: Same study: safety and tolerability (TEAEs, heart rate, AV conduction, LFTs, infections); format: in vivo, human
[2] = tested on: patients with moderate to severe ulcerative colitis; assay: Randomized, double-blind, placebo-controlled dose-ranging study in ulcerative colitis: efficacy (Mayo scores, endoscopic improvement, remission); format: in vivo, human; details: for improvement in 2-component Mayo Score (0 to 6) relative to placebo / improvement in Total Mayo Score (0 to 12) relative to placebo: Week 12
Description: A randomized, double-blind, placebo-controlled, parallel-group, dose-ranging study to assess safety and efficacy of two orally administered doses (1 mg and 2 mg) of Compound 1 in patients with ulcerative colitis was conducted. The table below provides a summary of demographic data by treatment group.
Patients were randomized into a double-blind, placebo-controlled study to receive once daily (q.d.) doses of the L-arginine salt of Compound 1 (1 mg or 2 mg) or matching placebo in a 1:1:1 ratio for 12 weeks. The trial enrolled 156 patients with moderate to severe ulcerative colitis (3-component Mayo score of 4-9 that includes endoscopic subscore ≥2, rectal bleeding score ≥1).
The treatment formulation was composed of immediate-release, hard gelatin capsules containing L-arginine salt of Compound 1. The placebo was composed of hard gelatin capsules containing microcrystalline cellulose.
Patients were instructed to take their capsule on an empty stomach (overnight fast of approximately 8 hours) and to avoid eating for approximately 1 hour after dosing.
The primary objective of this proof-of-concept study was to determine the effect of treatment with the L-arginine salt of Compound 1 in changing 3-component Mayo Clinic score (score ranging from 0 to 9, including stool frequency, rectal bleeding and findings on endoscopy) at 12 weeks.
Secondary endpoints were the proportion of patients who achieve endoscopic improvement at Week 12; change in 2-component Mayo Score (score ranging from 0 to 6, including rectal bleeding and findings on endoscopy) at Week 12; and change in Total Mayo Score (score ranging from 0 to 12, including stool frequency, rectal bleeding, findings on endoscopy, and physician global assessment) at Week 12.
Exploratory endpoints included change from baseline in lymphocyte counts at Weeks 1, 2, 4, 8, and 12; proportion of patients achieving clinical remission at Week 12; and proportion of patients who achieve clinical response at Week 12.
ANCOVA model, adjusted for current oral corticosteroid use, prior exposure to TNF-alpha antagonists, and baseline value, was used to estimate changes in Mayo Clinic Score. Mantel-Haenszel method (estimated treatment difference by adjusting current oral corticosteroid use and prior exposure to TNF-alpha antagonists) used to estimate proportion difference for dichotomous parameters. Missing individual Mayo subscores impacting efficacy measures were imputed using multiple imputation methodology with observed case analysis for sensitivity. Statistical testing was pre-specified as one-sided with p<0.025 reflecting conventional statistical significance. Hierarchical closed testing procedure for primary and secondary endpoints at 0.05 alpha level was used.

| Structure (SMILES) | serious adverse events (SAEs), % of patients ([1]; 2 mg, placebo 11.1%) | heart rate on hourly ECGs (in words) ([1]; Day 1, both 1 mg and 2 mg groups) | mean change in heart rate on hourly ECGs ([1]; Day 1, either group (1 mg, 2 mg), any timepoint) | severity of adverse events in infections and infestations ([1]; assessed by investigators, majority upper respiratory tract infections) | increases in liver function tests (LFTs) compared to placebo ([1]; in vivo) | reports of macular edema ([1]; in vivo) | reports of pulmonary function test abnormalities ([1]; in vivo) | serious adverse events related to heart rate changes or AV block ([1]; in vivo) | discontinuations from study related to bradycardia or AV block ([1]; throughout the study) | impact on heart rate and AV conduction ([1]; throughout the study) | improvement in 3-component Partial Mayo Score (0 to 9) relative to placebo ([2]; 1 mg q.d. oral, week 12, p=0.146, not significant) | improvement in 2-component Mayo Score (0 to 6) relative to placebo ([2]; 1 mg, p=0.086, not significant) | improvement in Total Mayo Score (0 to 12) relative to placebo ([2]; 1 mg, p=0.128, not significant) | improvement in 3-component Partial Mayo Score (0 to 9) relative to placebo ([2]; 2 mg q.d. oral, week 12, p=0.009) | improvement in Total Mayo Score (0 to 12) relative to placebo ([2]; 2 mg, p=0.010) | improvement in 2-component Mayo Score (0 to 6) relative to placebo ([2]; dose not printed (2 mg implied), p=0.002) | primary and all secondary endpoints ([2]; high dose (2 mg), week 12) | improvement in individuals with prior vedolizumab use or a history of pancolitis (subgroup analyses) ([2]; subgroups, 2 mg, week 12 (FIGS. 3A-3D)) |
| --- | --- | --- | --- | --- | --- | --- | --- | --- | --- | --- | --- | --- | --- | --- | --- | --- | --- | --- |
| O=C(O)C[C@H]1CCc2c1[nH]c1ccc(OCc3ccc(C4CCCC4)c(C(F)(F)F)c3)cc21 [L-arginine salt of Compound 1] | 0% | mild decrease | < 10 bpm | mild or moderate | no increases | no reports | no reports | No serious adverse events | no discontinuations | low | 0.43 | 0.39 | 0.60 | 0.99 | 1.27 | 0.84 | achieved the primary and all secondary endpoints with statistical significance |  |
| O=C(O)C[C@H]1CCc2c1[nH]c1ccc(OCc3ccc(C4CCCC4)c(C(F)(F)F)c3)cc21 [Compound 1, (R)-2-(7-(4-cyclopentyl-3-(trifluoromethyl)benzyloxy)-1,2,3,4-tetrahydrocyclopenta[b]indol-3-yl)acetic acid] |  |  |  |  |  |  |  |  |  |  |  |  |  |  |  |  |  | improvement is not seen |
